Reference: US11358711B2, “Tetracyclic heterocycle compounds useful as HIV integrase inhibitors” (Merck Sharp & Dohme Corp., priority 2019, dated 2022)
Where two headings read alike, the source gives them in different places.

System: HIV-1 (NL4-3 strain)
Experiment: Assay for inhibition of HIV replication (VIKING; MT4-gag-GFP reporter cell line)
Type: cell-based
Method: This assay is a kinetic assay that employs a reporter cell line (MT4-gag-GFP) to quantify the number of new cells infected in each round of replication.
MT4-GFP cells (250,000 cells/ml) were bulk-infected with HIV-1 (NL4-3 strain) at low multiplicity of infection (MOI) in RPMI cell culture medium+10% FBS for 24 hours. Cells were then washed once in RPMI cell culture medium+10% FBS and resuspended in RPMI cell culture medium+0% or 10% or 100% normal human serum (NHS). Test compounds were serial-diluted in DMSO on an ECHO® liquid handler. The infected MT4-GFP cells were added to a 384-well poly-D-lysine coated black plate with clear bottom in which the diluted test compounds were placed. The cells were seeded at 8,000 cells per well and the final DMSO concentration was 0.4%. The infected cells (Green GFP cells) were quantified at both 24 and 48 hours post incubation using Acumen eX3. Viral reproductive ratio (R0) was determined using the number of infected cells at 48 hours divided by the number of infected cells at 24 hours. Percent viral growth inhibition was calculated by [1−(R−Rtripledrug)/(RDMSO−Rtripledrug)]*100. Compound potency IP or IC50 was determined by a 4-parameter dose response curve analysis. In vitro potency in the cell-based assay in the abscence of normal human serum (NHS) and the presence of 100% NHS.

[1] = Human immunodeficiency virus 1, NL43, MT4-GFP cells infected with HIV-1 NL4-3, 0% normal human serum (NHS), read-out: VIKING IP50 (nM) with 0% NHS
[2] = Human immunodeficiency virus 1, NL43, MT4-GFP cells infected with HIV-1 NL4-3, 100% normal human serum (NHS), read-out: VIKING IP50 (nM) with 100% NHS
[3] = MT4-GFP cells infected with HIV-1 NL4-3, 0% normal human serum (NHS), read-out: VIKING IP50 (nM) with 0% NHS
[4] = MT4-GFP cells infected with HIV-1 NL4-3, 100% normal human serum (NHS), read-out: VIKING IP50 (nM) with 100% NHS

| Structure (SMILES) | IC50 [1] | IC50 [2] | IC50 [3] | IC50 [4] |
| --- | --- | --- | --- | --- |
| C[C@H]1COC2C3CCc4c(C(=O)NCc5cccc(Cl)c5F)c(=O)c(O)c(n43)C(=O)N21 (stereo partly drawn) [Compound 30] | 0.536 nM | 838 nM | – | – |
| O=C1c2c(O)c(=O)c(-c3cnn(Cc4ccc(F)cc4F)c3)c3n2C(CC3)C2OCCN12 (stereo not drawn) [Compound 46] | 34.5 nM | 222 nM | – | – |
| C[C@@H]1CCOC2C3CCc4c(C(=O)NCc5ccc(F)cc5F)c(=O)c(O)c(n43)C(=O)N21 (stereo partly drawn) [Compound 60] | 0.934 nM | 27.6 nM | – | – |
| COC1CC2C3OCCN3C(=O)c3c(O)c(=O)c(C(=O)NCc4ccc(F)cc4F)c1n32 (stereo not drawn) [Compound 72] | – | – | 0.754 nM | 8000 nM |
| CC1C2C3CCc4c(C(=O)NCc5cccc(Cl)c5F)c(=O)c(O)c(n43)C(=O)N2C[C@@H]1C (stereo partly drawn) [Compound 102] | – | – | 1.05 nM | 579 nM |
| C[C@H]1CN(S(C)(=O)=O)C2C3CCc4c(C(=O)NCc5cccc(Cl)c5F)c(=O)c(O)c(n43)C(=O)N21 (stereo partly drawn) [Compound 116] | – | – | 4.57 nM | 195 nM |
